The conditions of this assay: K2CO3 5 mM, CH3CN:water (4:1), 1 hour.

On to `O=[N+]([O-])c1ccc(S(=O)(=O)Oc2ccccc2)c([N+](=O)[O-])c1` [probe 1, phenyl 2,4-dinitrobenzenesulfonate], for which the “CD response with other L-amino acids (phenylalanine, alanine, serine, tyrosine) versus L-Cys” value (probe 2.50 mM, amino acid 1.25 mM) is given as “remained CD silent with the exception of the cysteine solution”. Moreover, the “CD response with biothiols L-homocysteine and L-glutathione” value (probe 2.5 mM, biothiol 1.25 mM) is listed as “no induction of a CD signal”.

Values taken from US11852633B2 (priority 2017, dated 2023).
